Data reported in patent publication US11427591B2, “Kinase inhibitors” (priority 2018, dated 2022).
Read-outs that look alike come from different tables or passages of the source. Values belong to the compound of their own block, whether it stands above or below them.

Columns and labels:
[1] = tested on: Human hepatic stellate cell LX-2; assay: LX-2 Fibrosis Assay (inhibition of collagen production, TGF-b stimulated); type: cell-based
Procedure: Human hepatic stellate cell LX-2 were grown in DMEM (Invitrogen, 11960) supplied with 1% MEM Non-Essential Amino Acids (Invitrogen, 11140-050), 2% fetal bovine serum (Hyclone, SV30087.03), Penicillin (100 U/mL)-streptomycin (100 μg/mL) (Millipore, TMS-AB2-C) and 2 mM L-Glutamine (Invitrogen, 25030-001). After the cells grew in 12-well plates for 24 hours, the cell culture medium was changed to the same as above except using 0.4% fetal bovine serum. After 20 hour growth in the reduced serum medium, the cells were treated with indicated doses of compounds for 30 minutes. Subsequently, the cells were stimulated with 4 ng/mL TGF-b (R&D Systems, 240-B-002) for 48 hours. The cells were rinsed twice with DPBS before being harvested with 100 μL RIPA buffer (Sigma, R0278) supplemented with protease inhibitor cocktail (Roche, 04693132001) at 4° C. The total protein in each sample was quantified using BCA Protein Assay Kit (Pierce™, 23227) and equal amount of total protein of each sample was subject to Western blot analysis. Antibodies used were mouse anti-α-Actin (SPM332) (sc-365970), mouse anti-CTGF (E5) (sc-365970), and mouse anti-collagen α1 (3G3) (sc-293182), from Santa Cruz Biotechnologies; and mouse anti-GAPDH (6C5) (EMD Millipore, MAB374). […] As such, these compounds be used as inhibitors of fibrosis by inhibiting function of the discoidin domain receptor family.

[2] = Cytotoxicity, CellTiter-Glo Luminescent Cell Viability Assay; settings: human, LX-2 cells
Procedure: (§1) LX-2 cells were seeded into 96 well plates in the presence of compounds and allowed to grow for 72 hours before CellTiter-Glo® Luminescent Cell Viability Assay was carried out according the manufacturer's instruction.

[3] = tested on: primary tumor cells freshly isolated from patient derived xenograft tumor model; assay: Cholangiocarcinoma (bile duct cancer) tumor chemosensitivity assay (TCA), anti-proliferation; type: cell-based; settings: for Max (%) / Min (%): inhibition rate
Procedure: Cholangiocarcinoma (Bile Duct Cancer)
All the compounds were tested starting from 30 μM, 3-fold serial dilution.
(§2) Add 195 μL of assay medium into each well of the V-bottom plate; then transfer 5 μL of the stock compound solution of each concentration from the stock plate (400× stock). Add 5 μL of DMSO into the Blank and Control wells. Pipette up and down to mix well. This V-plate is designated as the 10× concentrate compound plate.
For cell viability test, add compounds as below. Then incubate the plates at 37° C., 5% CO2, 95% air and 100% relative humidity for 3 days or 6 days. For day 0 plate, add 15 μL of the DMSO-medium into the Control wells. The final DMSO concentration was 0.25%. Proceed to cell viability assay. For TCA plates, add 15 μL of the compound-medium from the 10× concentrate compound plate into the cells in 96-well assay plate according to the plate map. Add 15 μL of the DMSO-medium into the Blank and Control wells. The final DMSO concentration was 0.25%.
The procedures were performed according to the Promega CellTiter-Glo Luminescent Cell Viability Assay Kit (Promega-G7573): Thaw the CellTiter-Glo buffer and equilibrate to room temperature prior to use; Equilibrate the lyophilized CellTiter-Glo Substrate to room temperature prior to use; Transfer the entire liquid volume of CellTiter-Glo Buffer into the amber bottle containing CellTiter-Glo Substrate to reconstitute the lyophilized enzyme/substrate mixture. This forms the CellTiter-Glo Reagent; Mix by gently vortexing to obtain a homogeneous solution; Equilibrate the plate and its contents to room temperature for approximately 30 minutes; Add 75 μL (equal to the half volume of culture medium present in each well) CellTiter-Glo Reagent in each well. Cover plates with aluminum foil to protect from light; Mix contents for 2 minutes on an orbital shaker to induce cell lysis; Allow the plate to incubate at room temperature for 10 minutes to stabilize luminescent signal; and Transfer the mixture of cell and CTG buffer to the detection 96 well plate and record luminescence on the 2104 EnVision plate reader. An ATP standard curve at the same time points is prepared.
Inhibition rate (IR) of the tested compounds was determined by the following formula: IR (%)=(1−(RLU compound−RLU blank)/(RLU control−RLU blank))*100%. The inhibitions of different dose of compound were calculated in Excel file, and then were used to plot inhibition curve and evaluate related parameters, such as Min, Max and IC50. The data were interpreted by GraphPad Prism software. […]

[4] = tested on: primary tumor cells freshly isolated from PC-07-0024 patient derived xenograft (PDX) tumor model; assay: Pancreatic cancer tumor chemosensitivity assay (TCA), anti-proliferation, PC-07-0024; type: cell-based; settings: for IC50: Homo sapiens
Procedure: (§3) Compound 1 is compared to Gemcitabine, which is a chemotherapy drug used in various types of cancers (e.g., breast cancer, ovarian cancer, non-small cell lung cancer, pancreatic cancer, and bladder cancer). The compounds, at 30 μM, 3 fold serial dilution, are tested in primary tumor cells freshly isolated from PC-07-0024 and LU-01-0523 patient derived xenograft (PDX) tumor model using tumor chemosensitivity assay (TCA).
as §2, with “The study was performed as follows. Add 195” for “Add 195”
(§4) For cell viability test, add compounds as below. Then incubate the plates at 37° C., 5% CO2, 95% air and 100% relative humidity for 3 days or 6 days. For day 0 plate, add 15 μL of the DMSO-medium into the Control wells. The final DMSO concentration was 0.25%. Proceed to cell viability assay. For TCA plates, add 15 μL of the compound-medium from the 10× concentrate compound plate into the cells in 96-well assay plate according to the plate map. Add 15 μL of the DMSO-medium into the Blank and Control wells. The final DMSO concentration was 0.25%. The assay is performed similar to the protocol of the bile duct cancer study provided above.

[5] = tested on: primary tumor cells freshly isolated from LU-01-0523 patient derived xenograft (PDX) tumor model; assay: Tumor chemosensitivity assay (TCA), anti-proliferation, LU-01-0523; type: cell-based; settings: for IC50: Homo sapiens
Procedure: as §3
as §2, with “The study was performed as follows. Add 195” for “Add 195”
as §4

[6] = tested on: LX-2 cells; assay: Cytotoxicity, CellTiter-Glo Luminescent Cell Viability Assay
Procedure: as §1

[7] = 72 h, read-out: Relative IC50 (μM)
[8] = 144 h, read-out: Relative IC50 (μM)
[9] = 4 ng/mL TGF-b, 48 hours, read-out: Inhibition of Collagen Production in LX-2 Cells IC50

IC50 ([1]; Homo sapiens, LX-2, 48 h, read-out: Inhibition of Collagen Production in LX-2 Cells IC50(nM)): 13 nM
IC50 ([3]; Homo sapiens, 72 h): > 30000 nM
IC50 ([3]; Homo sapiens, 144 h): > 30000 nM
IC50 [4, 7]: 5.7 µM
IC50 [4, 8]: 2.65 µM
IC50 [5, 7]: > 30 µM
IC50 [5, 8]: > 30 µM
SMILES: Cc1ccc2c(Nc3cccc(C(F)(F)F)c3)noc2c1C#Cc1cnc2cccnn12 [Compound 1, 7-(Imidazo[1,2-b]pyridazin-3-ylethynyl)-6-methyl-N-(3-(trifluoromethyl)phenyl)benzo[d]isoxazol-3-amine]
CC50 at 72 h [2]: 3000 nM
Max (%) ([3]; Day 3): 2.56%
Min (%) ([3]; Day 3): −8.75%
Max (%) ([3]; Day 6): 2.88%
Min (%) ([3]; Day 6): −27.04%
Bottom (%) ([4]; PC-07-0024, Day 3): −11.36%
Top (%) ([4]; PC-07-0024, Day 3): 42.29%
Bottom (%) ([4]; PC-07-0024, Day 6): −26.68%
Top (%) ([4]; PC-07-0024, Day 6): 37.60%
Bottom (%) ([5]; LU-01-0523, Day 3): −5.49%
Top (%) ([5]; LU-01-0523, Day 3): 100.00%
Bottom (%) ([5]; LU-01-0523, Day 6): −16.14%
Top (%) ([5]; LU-01-0523, Day 6): 0.00%

SMILES: Cc1ccc2c(Nc3cc(CN4CCOCC4)cc(C(F)(F)F)c3)noc2c1C#Cc1cnc2cccnn12 [Compound 111]
IC50 [1, 9]: 1950 nM
CC50 [6]: > 42300 nM

SMILES: Cc1ccc2c(Nc3cc(CNC4CC4)cc(C(F)(F)F)c3)noc2c1C#Cc1cnc2cccnn12 [Compound 112]
IC50 [1, 9]: 1660 nM
CC50 [6]: 1360 nM

SMILES: Cc1ccc2c(Nc3cc(CN4CCCC4)cc(C(F)(F)F)c3)noc2c1C#Cc1cnc2cccnn12 [Compound 113]
IC50 [1, 9]: 2580 nM
CC50 [6]: 4250 nM

SMILES: Cc1ccc2c(Nc3cccc(C(C)(C)C#N)c3)noc2c1C#Cc1cnc2cccnn12 [Compound 115]
IC50 [1, 9]: 502 nM
CC50 [6]: 1900 nM

SMILES: Cc1ccc2c(Nc3cc(CN4CCOCC4)cc(C(C)(C)C#N)c3)noc2c1C#Cc1cnc2cccnn12 [Compound 117]
IC50 [1, 9]: 160 nM
CC50 [6]: > 57200 nM

SMILES: Cc1ccc2c(Nc3cccc(OC(F)(F)F)c3)noc2c1C#Cc1cnc2cccnn12 [Compound 120]
IC50 [1, 9]: 2950 nM
CC50 [6]: 2410 nM

SMILES: Cc1ccc2c(Nc3cncc(C(F)(F)F)c3)noc2c1C#Cc1cnc2cccnn12 [Compound 121]
IC50 [1, 9]: 62 nM
CC50 [6]: > 40000 nM
IC50 ([3]; Day 3, read-out: IC50): > 30000 nM
IC50 ([3]; Day 6, read-out: IC50): 29100 nM
Max (%) ([3]; Day 3): 49.93%
Min (%) ([3]; Day 3): −11.42%
Max (%) ([3]; Day 6): 51.14%
Min (%) ([3]; Day 6): −18.96%

IC50 ([3]; Homo sapiens, 72 h, Day 3, read-out: IC50): 22400 nM
IC50 ([3]; Homo sapiens, 144 h, Day 6, read-out: IC50): 15200 nM
SMILES: Cc1nc(Nc2ncc(C(=O)Nc3c(C)cccc3Cl)s2)cc(N2CCN(CCO)CC2)n1 [Dasatinib, reference compound]
Max (%) ([3]; Day 3): 66.18%
Min (%) ([3]; Day 3): 8.00%
Max (%) ([3]; Day 6): 89.06%
Min (%) ([3]; Day 6): 14.03%

IC50 ([4]; 72 h, PC-07-0024, Day 3, read-out: Relative IC50): 4 µM
IC50 ([4]; 144 h, PC-07-0024, Day 6, data exclsn, read-out: Relative IC50): 0.009 µM
IC50 ([4]; 144 h, PC-07-0024, Day 6, read-out: Relative IC50): 5.93 µM
IC50 ([5]; 72 h, LU-01-0523, Day 3, read-out: Relative IC50): > 30 µM
IC50 ([5]; 144 h, LU-01-0523, Day 6, read-out: Relative IC50): 1.34 µM
SMILES: Nc1ccn([C@@H]2O[C@H](CO)[C@@H](O)C2(F)F)c(=O)n1 [Gemcitabine]
Bottom (%) ([4]; PC-07-0024, Day 3): 10.21%
Top (%) ([4]; PC-07-0024, Day 3): 46.53%
Bottom (%) ([4]; PC-07-0024, Day 6): 23.38%
Top (%) ([4]; PC-07-0024, Day 6): 72.30%
Bottom (%) ([4]; PC-07-0024, Day 6, data exclsn): 0.00%
Top (%) ([4]; PC-07-0024, Day 6, data exclsn): 30.34%
Bottom (%) ([5]; LU-01-0523, Day 3): 4.79%
Top (%) ([5]; LU-01-0523, Day 3): 100.00%
Bottom (%) ([5]; LU-01-0523, Day 6): 0.00%
Top (%) ([5]; LU-01-0523, Day 6): 100.00%
